Laboratory results: paper PMC5708526, “Targeting secondary protein complexes in drug discovery: studying the druggability and chemical biology of the HSP70/BAG1 complex” (Chemical Communications (Cambridge, England), 2017)
Read-outs that look alike come from different tables or passages of the source.

Assays:
TR-HSC70 (aa 4-381) = molecular target: T1, TR-HSC70 (aa 4-381) (Homo sapiens, UniProt P11142); assay: Fluorescence polarisation probe KD determination with truncated HSC70; type: binding
T1 construct: HSC70-NBD (residues 4 to 381); made in house
Description: (§1) To determine the binding affinity of bisaryl FP-probe 11 for HSP72, increasing concentrations of the protein were titrated against a fixed concentration (10 nM) of the FP-probe. […] We speculated that this decrease in apparent KD was due to the slow hydrolysis of the ATP-probe to ADP-ATTO-488 + Pi. Although HSP72 has low intrinsic ATPase activity,[8] the high enzyme concentration could catalyse hydrolysis over the time-frame of the assay, with the initial KD values reflective of the known modest affinity of ATP for HSP70, whilst the final KD value was consistent with the higher affinity ADP ligand.[14] […]
(§2) TRIS Tris(hydroxymethyl)aminomethane
(§3) General Information: Unless otherwise stated the aqueous assay buffer contained 50 mM TRIS base pH 7.4, 150 mM NaCl, 6 mM MgCl2, 1 mM DTT, 0.1% (wt/wt) CHAPS. The assay was conducted using 384 Plus F ProxiPlates (PerkinElmer) with a final assay volume of 10 μL. Plates were centrifuged at 1000 rpm for 1 minute prior to incubation and read using an 2103 Envision Multilable Plate Reader. Excitation and emission wavelengths used for green probes were 480 nm and 535 nm, respectively.
Fluorescence polarisation was measured in units of millipolarization (mP). […] Data were plotted and analysed using GraphPad Prism 6, graphical data represents the mean ± standard error of the mean for a single representative experiment. […]

HSP72 = molecular target: T2, HSP72 (Homo sapiens, UniProt P0DMV8); assay: Fluorescence polarisation probe KD determination with full-length HSP72; type: binding
T2 construct: made in house
Description: as §1, §2, §3
Fluorescence polarisation was measured in units of millipolarization (mP). All experiments were performed in triplicate, unless otherwise stated. Data were plotted and analysed using GraphPad Prism 6, graphical data represents the mean ± standard error of the mean for a single representative experiment. ATP-derived fluorescent probes (1.0 mM in aqueous) were purchased from Jena Bioscience. Human BAG-1M (10.9 μM in 20 mM TRIS base pH 7.4, 100 mM NaCl, 1 mM DTT, 1% (v/v) glycerol) was purchased from Enzo Life Sciences. […]
Fluorescence polarisation values for the tracer ± protein were plotted using GraphPad prism 6.
Fluorescent probe KD determination: To each well, 5 μL of probe molecule (20 nM in assay buffer) and increasing concentrations of HSP70 protein (5 μL, two-fold dilution series) were added. Fluorescence polarisation values for tracer control wells (10 nM probe in assay buffer only) were subtracted from each data point prior to data analysis. KD determination was performed using non-linear regression analysis (GraphPad Prism 6, one site–specific binding model). […]
BAG-1 titration: To each well, ATP-ATTO488 and HSP70 at two times their final concentration (5 µL in assay buffer) was added and the plate incubated in the dark for 16 hours. Increasing concentrations of BAG1 protein (5 μL, two-fold dilution series in 20 […]
(1 picture or pasted object on this page, not shown here)

T2 sequence (P0DMV8 whole entry): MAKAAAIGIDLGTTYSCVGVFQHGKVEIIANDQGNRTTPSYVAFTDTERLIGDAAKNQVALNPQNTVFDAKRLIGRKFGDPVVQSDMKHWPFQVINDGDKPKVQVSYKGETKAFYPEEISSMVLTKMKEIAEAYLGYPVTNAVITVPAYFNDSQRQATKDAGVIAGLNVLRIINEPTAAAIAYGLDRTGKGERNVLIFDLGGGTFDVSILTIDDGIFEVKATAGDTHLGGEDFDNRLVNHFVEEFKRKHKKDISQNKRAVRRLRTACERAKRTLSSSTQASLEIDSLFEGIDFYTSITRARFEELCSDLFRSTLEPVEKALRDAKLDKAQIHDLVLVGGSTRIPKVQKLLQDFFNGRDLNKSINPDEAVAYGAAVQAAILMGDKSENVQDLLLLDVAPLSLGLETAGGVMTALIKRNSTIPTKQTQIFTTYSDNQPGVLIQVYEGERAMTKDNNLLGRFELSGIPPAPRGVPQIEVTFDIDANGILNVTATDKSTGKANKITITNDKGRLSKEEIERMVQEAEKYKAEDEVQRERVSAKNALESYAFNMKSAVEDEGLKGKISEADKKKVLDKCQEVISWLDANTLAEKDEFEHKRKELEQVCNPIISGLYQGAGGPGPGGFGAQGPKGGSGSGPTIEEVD
T1 sequence (P11142 4-381): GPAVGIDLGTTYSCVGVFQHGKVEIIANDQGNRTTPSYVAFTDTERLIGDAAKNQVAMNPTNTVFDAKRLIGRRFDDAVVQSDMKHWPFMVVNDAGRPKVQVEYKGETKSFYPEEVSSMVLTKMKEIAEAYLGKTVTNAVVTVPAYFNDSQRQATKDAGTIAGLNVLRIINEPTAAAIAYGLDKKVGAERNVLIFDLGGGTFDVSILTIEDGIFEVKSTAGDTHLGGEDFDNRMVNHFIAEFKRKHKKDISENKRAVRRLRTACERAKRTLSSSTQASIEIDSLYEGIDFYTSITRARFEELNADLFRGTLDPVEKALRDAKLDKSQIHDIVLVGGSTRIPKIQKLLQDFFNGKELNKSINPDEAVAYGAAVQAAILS

Q: CN(CCCC(=O)NCCCCCCNc1ncnc2c1nc(NCc1ccc3ncccc3c1)n2[C@@H]1O[C@H](COCc2ccc(C(F)(F)F)cc2)[C@@H](O)[C@H]1O)C(=O)c1ccccc1-c1c2ccc(=N)c(S(=O)(=O)O)c-2oc2c(S(=O)(=O)O)c(N)ccc12 [compound 11] was tested. Which Kd (TR-HSC70 (aa 4-381); TR-HSC70) did it give?
A: The Kd was 0.117 µM.

Q: And the pKD (TR-HSC70 (aa 4-381); TR-HSC70, n = 2)?
A: Its pKD is 6.93.

Q: What about the “time-dependency of affinity for HSP72” value (HSP72) of the same molecule?
A: The value was “no apparent time-dependency”.

Q: And the pKD (HSP72; 10 nM probe, 0.1% (w/v) CHAPS, n = 4)?
A: Its pKD is 6.72 ± 0.04.

Q: What about the Kd (HSP72; 10 nM probe, 0.1% (w/v) CHAPS, read-out: KD) of the same molecule?
A: The Kd was 0.194 µM.

Q: What about the pKD (HSP72; 0.01% (v/v) Triton X-100, n = 3) of the same molecule?
A: The pKD was 6.83.

Q: And the Kd (HSP72; 0.01% (v/v) Triton X-100, read-out: KD)?
A: The Kd was 0.15 µM.

Q: And the Kd (HSP72; without BAG1, Fig. S7 isotherm, read-out: KD - BAG1)?
A: The Kd was 0.183 µM.
